Source: patent US20130059385A1, “METHODS OF GENERATING PLURIPOTENT STEM CELLS” (THE SCRIPPS RESEARCH INSTITUTE, priority 2010, published 2013)

What was measured:
MEF cells = conditions: cited from earlier work
[1] = test system: Neural progenitor cells (NPCs); conditions: NPC reprogramming, Shi et al. 2008; cited from earlier work
[2] = test system: MEFs transduced with Oct4, Sox2 and Klf4; assay: Reprogramming of MEFs transduced by Oct4, Sox2 and Klf4 (AP-positive / Oct4-GFP-positive colonies); format: cell-based, mouse
Description: FIG. 1. CHIR99021 promoted the reprogramming of MEFs transduced by Oct4, Sox2 and Klf4. MEFs from 129 strain were transduced with Oct4, Sox2 and Klf4 by retroviruses, and treated the next day with increasing concentrations of CHIR99021 for two week. Three weeks later, AP was detected by staining cells in monolayer (A). […] After 3 weeks of treatment, the GFP positive colonies in each well were counted (B).
Cell Culture and Viral Transduction: MEFs were derived from 12952/SvPasCrlf and ROSA26^+/−/OG2^+/− mice according to the protocol reported on WiCell Research Institute website: “Introduction to human embryonic stem cell culture methods”. ROSA26^+/−/OG2^+/− transgenic mice carry GFP reporter gene under the control of the Oct4 promoter (Oct4-GFP) and the ubiquitously expressed neo/lacZ transgene [Do J T, Scholer H R, Stem Cells, 22:941-949 (2004)]. Animal experiments were performed according to the Animal Protection Guidelines of the Max Planck Institute for Biomolecular Research, Germany. […] MEFs transduced with Oct4/Klf4/Sox2 (1×10^4 cells/well together with 10^5 cells/well CF1 feeders in 6-well plates) were then treated with GSK-3 inhibitor CHIR99021 (Stemgent) for two weeks, and EGFP positive colonies were picked up at the third week after treatment. MEFs transduced with Oct4/Klf4 (1×10^5 cells/well in 6-well plates) were treated with 10 μM CHIR99021 for four weeks, GFP positive colonies were picked up and expanded at the fourth to fifth week after treatment.
Cytochemistry and Immunofluorescence Assay: Alkaline Phosphatase staining was performed according to the manufacturer's protocol using the Alkaline Phosphatase Detection Kit (Millipore). For immunofluorescence assay, cells were fixed in 4% paraformaldehyde for 10 minutes and washed three times with PBS containing 0.1% Triton X-100 (Sigma-Aldrich). The fixed cells were then incubated in blocking buffer, 0.1% Triton X-100 and 10% normal donkey serum (Jackson ImmunoResearch Laboratories Inc) in PBS (Invitrogen/Gibco BRL), for 30 min at room temperature. […]

[3] = test system: Sox2 and Oct4 expression in MEFs; assay: Real-time PCR of pluripotency gene expression in untransduced MEFs after treatment; format: cell-based, mouse; conditions: 10 μM CHIR99021, three days
Description: FIG. 2. […] Scale bars, 20μm. […] PCR analysis: […] The primer for viral Klf4 was [NT] and [NT]. The primer for FGF-4 was [NT] and [NT].

Nc1ncn([C@@H]2O[C@H](CO)[C@@H](O)[C@H]2O)c(=O)n1 [5-AZA]
improvement of reprogramming efficiency (MEF cells): up to 4 folds

COc1cc2nc(N3CCCN(C)CC3)nc(NC3CCN(Cc4ccccc4)CC3)c2cc1OC [BIX-01294]
enhancement of reprogramming efficiency [1]: over 8 fold

Cc1c[nH]c(-c2cnc(NCCNc3ccc(C#N)cn3)nc2-c2ccc(Cl)cc2Cl)n1 [CHIR99021]
concentration showing the greatest effects on reprogramming ([2]; Oct4/Sox2/Klf4-transduced ROSA26+/-/OG2+/- MEFs): about 10 μM
reprogramming efficiency (GFP-positive colonies) of transduced MEFs ([2]; about 10 μM CHIR99021, treated two weeks, counted after 3 weeks, without compound 0.03-0.08%): 0.2-0.4%
number of AP-positive mESC-like colonies ([2]; treated two weeks, AP staining at third week after treatment): significantly increased the number of alkaline phosphase (AP)-positive mESC-like colonies in a dose-dependent manner
induction of Sox2 and Oct4 expression in MEFs (real-time PCR) [3]: did not induce the expression of Sox2 and Oct4
